Results: the NIST ThermoML archive (doi:10.1021/je500380x)
Numbers after ± are expanded uncertainties.

Assay: mn = molality of the nth substance listed, in mol/kg
Settings: 100 kPa, Liquid; for electrical conductivity: Alternating current cell with electrodes; for viscosity: Falling or rolling sphere viscometry; for mass density: Vibrating tube method

CCC(=O)OCCN1CCNCC1 [2-(piperazin-1-yl)ethyl propionate] + O
Settings	electrical conductivity, 318.15 K [S/m]	electrical conductivity, 323.15 K [S/m]	mass density, 318.15 K [kg/m3]	mass density, 323.15 K [kg/m3]	viscosity, 318.15 K [mPa·s]	viscosity, 323.15 K [mPa·s]
m1 = 0.05	–	0.426 ± 0.005	992.04 ± 0.11	989.83 ± 0.11	0.632 ± 0.008	0.587 ± 0.007
m1 = 0.0999	–	0.772 ± 0.008	993.83 ± 0.11	991.62 ± 0.11	0.658 ± 0.008	0.61 ± 0.008
m1 = 0.1996	–	1.36 ± 0.014	997.43 ± 0.11	995.19 ± 0.11	0.7 ± 0.009	0.645 ± 0.008
m1 = 0.3	–	1.85 ± 0.019	1001.16 ± 0.11	998.9 ± 0.11	0.737 ± 0.009	0.678 ± 0.008
m1 = 0.3997	–	2.27 ± 0.02	1004.61 ± 0.11	1002.44 ± 0.11	0.785 ± 0.01	0.722 ± 0.009
m1 = 0.5001	–	2.61 ± 0.03	1008.39 ± 0.11	1006.07 ± 0.11	0.844 ± 0.01	0.773 ± 0.01
m1 = 0.5992	–	2.92 ± 0.03	1012.05 ± 0.11	1009.7 ± 0.11	0.902 ± 0.011	0.825 ± 0.01
m1 = 0.6993	–	3.14 ± 0.03	1015.67 ± 0.11	1013.4 ± 0.11	0.969 ± 0.012	0.883 ± 0.011
m1 = 0.7997	–	3.34 ± 0.03	1019.49 ± 0.11	1017.08 ± 0.11	1.048 ± 0.013	0.953 ± 0.012
m1 = 0.9003	–	3.48 ± 0.04	1023 ± 0.11	1020.5 ± 0.11	1.133 ± 0.014	1.028 ± 0.013
m1 = 0.9988	–	3.59 ± 0.04	1026.75 ± 0.11	1024.22 ± 0.11	1.222 ± 0.015	1.106 ± 0.014
m1 = 1.199	–	3.69 ± 0.04	1034.11 ± 0.11	1031.52 ± 0.11	1.452 ± 0.018	1.307 ± 0.016
m1 = 1.402	–	3.64 ± 0.04	1041.51 ± 0.11	1038.79 ± 0.11	1.729 ± 0.021	1.549 ± 0.019
m1 = 1.6	–	3.52 ± 0.04	1048.62 ± 0.12	1045.84 ± 0.11	2.122 ± 0.026	1.895 ± 0.023
m1 = 1.802	–	3.28 ± 0.03	1055.75 ± 0.12	1052.89 ± 0.12	2.566 ± 0.032	2.274 ± 0.028
m1 = 1.998	2.7 ± 0.03	3 ± 0.03	1062.48 ± 0.12	1059.54 ± 0.12	3.183 ± 0.039	2.797 ± 0.034
m1 = 2.2	2.4 ± 0.02	2.69 ± 0.03	1069.07 ± 0.12	1066.05 ± 0.12	4.044 ± 0.05	3.527 ± 0.043
m1 = 2.402	2.11 ± 0.02	2.38 ± 0.02	1075.55 ± 0.12	1072.45 ± 0.12	5.196 ± 0.064	4.525 ± 0.056
m1 = 2.6	1.77 ± 0.018	2.01 ± 0.02	1081.13 ± 0.12	1077.96 ± 0.12	7.174 ± 0.088	6.112 ± 0.075
m1 = 2.798	1.411 ± 0.014	1.628 ± 0.016	1086.33 ± 0.12	1083.11 ± 0.12	9.493 ± 0.12	8.069 ± 0.099
m1 = 3.002	1.17 ± 0.012	1.341 ± 0.013	1091.09 ± 0.12	1087.78 ± 0.12	12.49 ± 0.15	10.49 ± 0.13
